One assay addresses T1, human σ1 receptor (Homo sapiens, UniProt Q99720).
T1 construct: expressed in transfected cells; host or cells: HEK-293
The assay can be described thus: Human σ1 receptor radioligand assay ([3H](+)-pentazocine). In kind it is binding. In short, it runs like this: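 Binding used [3H](+)-pentazocine, 120 min at 37° C, with non-specific binding defined by 10 μM haloperidol. Bound radioligand was collected by filtration, washed with ice-cold 10 mM Tris-HCl pH 7.4 and counted by scintillation.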

Another assay has as its target T2, human σ2/TMEM97 receptor (Homo sapiens, UniProt Q5BJF2).
T2 construct: expressed in transfected cells; host or cells: HEK-293
In words: Binding assay to human σ2/TMEM97 receptor ([3H]-DTG). Conditions: transfected HEK-293 membranes, 10 nM [3H]-DTG, 25° C., 120 minutes; read-out: Binding σ-[…] (binding to σ2-receptor expressed as Ki). The method, boiled down: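 Membranes from transfected HEK-293 cells incubated with 10 nM [3H]-DTG in 50 mM Tris-HCl pH 8.0, 120 min at 25 °C; non-specific binding defined with 10 μM haloperidol. Bound radioactivity counted after filtration; compounds tested as % inhibition at 1 or 10 μM or at five concentrations for Ki.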

Where [1] appears, read: transfected HEK-293 membranes, 5 nM [3H](+)-pentazocine, 37° C., 120 minutes, read-out: Binding σ-[…] (binding to σ1-receptor expressed as Ki).

Read-outs that look alike come from different tables or passages of the source.

T2 sequence (Q5BJF2 whole entry): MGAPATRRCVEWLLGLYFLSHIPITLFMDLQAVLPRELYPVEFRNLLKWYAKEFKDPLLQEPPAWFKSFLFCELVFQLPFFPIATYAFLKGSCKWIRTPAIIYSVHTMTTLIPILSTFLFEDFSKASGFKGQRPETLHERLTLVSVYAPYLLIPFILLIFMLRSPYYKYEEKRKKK
T1 sequence (Q99720 whole entry): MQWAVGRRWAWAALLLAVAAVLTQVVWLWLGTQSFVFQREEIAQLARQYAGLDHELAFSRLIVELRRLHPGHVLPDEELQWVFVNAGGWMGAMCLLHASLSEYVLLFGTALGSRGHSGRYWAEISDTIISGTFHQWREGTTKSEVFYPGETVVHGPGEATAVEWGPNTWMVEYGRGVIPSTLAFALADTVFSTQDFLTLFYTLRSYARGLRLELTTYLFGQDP

Take `CC1(C)CN(C(=O)N2CCC3(CCN(CC4CCOCC4)CC3)C2)c2cccnc21` [Example 144, (3,3-dimethyl-2,3-dihydro-1H-pyrrolo[3,2-b]pyridin-1-yl)(8-((tetrahydro-2H-pyran-4-yl)methyl)-2,8-diazaspiro[4.5]decan-2-yl)methanone]: the Ki is 100 to 500 nM at human σ1 receptor (setting [1]) and under 100 nM at human σ2/TMEM97 receptor.
For `CC1(C)CN(C(=O)N2CCC3(CCN(Cc4ccccc4F)CC3)CC2)c2cccnc21` [Example 145, (3,3-dimethyl-2,3-dihydro-1H-pyrrolo[3,2-b]pyridin-1-yl)(9-(2-fluorobenzyl)-3,9-diazaspiro[5.5]undecan-3-yl)methanone] the same measures were under 100 nM and under 100 nM.
With `CC1(C)CN(C(=O)N2CCC3(CCN(Cc4ccc(C#N)c(F)c4)CC3)CC2)c2cccnc21` [Example 146, 4-((9-(3,3-dimethyl-2,3-dihydro-1H-pyrrolo[3,2-b]pyridine-1-carbonyl)-3,9-diazaspiro[5.5]undecan-3-yl)methyl)-2-fluorobenzonitrile], the Ki on human σ1 receptor (setting [1]) is under 100 nM; on human σ2/TMEM97 receptor it was 100 to 500 nM.
Take `CC1(C)CN(C(=O)N2CCC3(CCN(Cc4ccc(F)c(C#N)c4)CC3)CC2)c2cccnc21` [Example 147, 5-((9-(3,3-dimethyl-2,3-dihydro-1H-pyrrolo[3,2-b]pyridine-1-carbonyl)-3,9-diazaspiro[5.5]undecan-3-yl)methyl)-2-fluorobenzonitrile]: the Ki at human σ1 receptor (setting [1]) and on human σ2/TMEM97 receptor was under 100 nM in each case.
`CC1(C)CN(C(=O)N2CCC3(CCN(Cc4cc(F)ccc4F)CC3)C2)c2cccnc21` [Example 148, (8-(2,5-difluorobenzyl)-2,8-diazaspiro[4.5]decan-2-yl)(3,3-dimethyl-2,3-dihydro-1H-pyrrolo[3,2-b]pyridin-1-yl)methanone]: the Ki on human σ1 receptor (setting [1]) and at human σ2/TMEM97 receptor was under 100 nM each time.
On to `CC1(C)CN(C(=O)N2CCC3(CCN(Cc4ccc(F)cc4)CC3)C2)c2cccnc21` [Example 149, (3,3-dimethyl-2,3-dihydro-1H-pyrrolo[3,2-b]pyridin-1-yl)(8-(4-fluorobenzyl)-2,8-diazaspiro[4.5]decan-2-yl)methanone], for which the inhibition constant (Ki) on human σ1 receptor (setting [1]) and on human σ2/TMEM97 receptor was under 100 nM each time.
In the case of `CC1(C)CN(C(=O)N2CCC3(CCN(Cc4c(F)cccc4F)CC3)C2)c2cccnc21` [Example 150, (8-(2,6-difluorobenzyl)-2,8-diazaspiro[4.5]decan-2-yl)(3,3-dimethyl-2,3-dihydro-1H-pyrrolo[3,2-b]pyridin-1-yl)methanone], the Ki on human σ1 receptor (setting [1]) is over 1000 nM; on human σ2/TMEM97 receptor, 100 to 500 nM.
For `CC1(C)CN(C(=O)N2CCC3(CCN(Cc4ccc(C#N)cc4)CC3)C2)c2cccnc21` [Example 151, 4-((2-(3,3-dimethyl-2,3-dihydro-1H-pyrrolo[3,2-b]pyridine-1-carbonyl)-2,8-diazaspiro[4.5]decan-8-yl)methyl)benzonitrile] the same measures were under 100 nM and under 100 nM.
For `CC1(C)CN(C(=O)N2CCC3(CCN(Cc4cccc(F)c4)CC3)C2)c2cccnc21` [Example 152, (3,3-dimethyl-2,3-dihydro-1H-pyrrolo[3,2-b]pyridin-1-yl)(8-(3-fluorobenzyl)-2,8-diazaspiro[4.5]decan-2-yl)methanone] the same measures were under 100 nM and under 100 nM.
Consider `CC1(C)CN(C(=O)N2CCC3(CCN(Cc4ncccc4F)CC3)C2)c2cccnc21` [Example 153], for which the Ki at human σ1 receptor (setting [1]) was over 1000 nM; at human σ2/TMEM97 receptor, 100 to 500 nM.
For `CC1(C)CN(C(=O)N2CCC3(CCN(Cc4ccc(F)cn4)CC3)C2)c2cccnc21` [Example 154, (3,3-dimethyl-2,3-dihydro-1H-pyrrolo[3,2-b]pyridin-1-yl)(8-((5-fluoropyridin-2-yl)methyl)-2,8-diazaspiro[4.5]decan-2-yl)methanone] the same measures were 100 to 500 nM and under 100 nM.
For `CC1(C)CN(C(=O)N2CCC3(CCN(Cc4ccc(C(F)(F)F)nc4)CC3)C2)c2cccnc21` [Example 155, (3,3-dimethyl-2,3-dihydro-1H-pyrrolo[3,2-b]pyridin-1-yl)(8-((6-(trifluoromethyl)pyridin-3-yl)methyl)-2,8-diazaspiro[4.5]decan-2-yl)methanone] the same measures were over 1000 nM and under 100 nM.
Regarding `CC1(C)CN(C(=O)N2CCC3(CCN(CCC4CCOCC4)CC3)C2)c2cccnc21` [Example 156, (3,3-dimethyl-2,3-dihydro-1H-pyrrolo[3,2-b]pyridin-1-yl)(8-(2-(tetrahydro-2H-pyran-4-yl)ethyl)-2,8-diazaspiro[4.5]decan-2-yl)methanone], the values for the Ki on human σ1 receptor and at human σ2/TMEM97 receptor were 100 to 500 nM and under 100 nM, respectively.
Regarding `CC1(C)CN(C(=O)N2CCC3(CCN(Cc4ccc(C#N)cc4F)CC3)C2)c2cccnc21` [Example 157, 4-((2-(3,3-dimethyl-2,3-dihydro-1H-pyrrolo[3,2-b]pyridine-1-carbonyl)-2,8-diazaspiro[4.5]decan-8-yl)methyl)-3-fluorobenzonitrile], the Ki is 100 to 500 nM at human σ1 receptor (setting [1]) and under 100 nM on human σ2/TMEM97 receptor.
For `CC1(C)CN(C(=O)N2CCC3(CCN(Cc4cc(C#N)c(F)cc4F)CC3)C2)c2cccnc21` [Example 158, 5-((2-(3,3-dimethyl-2,3-dihydro-1H-pyrrolo[3,2-b]pyridine-1-carbonyl)-2,8-diazaspiro[4.5]decan-8-yl)methyl)-2,4-difluorobenzonitrile] the same measures were under 100 nM and under 100 nM.
For `CC1(C)CN(C(=O)N2CC3(CCN(Cc4ccccc4)CC3)C2)c2cccnc21` [Example 159, (7-benzyl-2,7-diazaspiro[3.5]nonan-2-yl)(3,3-dimethyl-2,3-dihydro-1H-pyrrolo[3,2-b]pyridin-1-yl)methanone] the same measures were under 100 nM and 100 to 500 nM.
For `Cc1ccc2c(n1)C(C)(C)CN2C(=O)N1CCC2(CCN(Cc3ccccc3F)CC2)CC1` [Example 160, (9-(2-fluorobenzyl)-3,9-diazaspiro[5.5]undecan-3-yl)(3,3,5-trimethyl-2,3-dihydro-1H-pyrrolo[3,2-b]pyridin-1-yl)methanone] the same measures were under 100 nM and under 100 nM.
`Cc1ccc2c(n1)C(C)(C)CN2C(=O)N1CCC2(CCN(CC3CCOCC3)CC2)CC1` [Example 161, (9-((tetrahydro-2H-pyran-4-yl)methyl)-3,9-diazaspiro[5.5]undecan-3-yl)(3,3,5-trimethyl-2,3-dihydro-1H-pyrrolo[3,2-b]pyridin-1-yl)methanone]: the Ki at human σ1 receptor (setting [1]) is 100 to 500 nM; at human σ2/TMEM97 receptor, under 100 nM.
For `Cc1ccc2c(n1)C(C)(C)CN2C(=O)N1CCC2(CCN(Cc3ccc(F)c(C#N)c3)CC2)CC1` [Example 162, 2-fluoro-5-((9-(3,3,5-trimethyl-2,3-dihydro-1H-pyrrolo[3,2-b]pyridine-1-carbonyl)-3,9-diazaspiro[5.5]undecan-3-yl)methyl)benzonitrile] the same measures were 100 to 500 nM and 100 to 500 nM.
As to `Cc1ccc2c(n1)C(C)(C)CN2C(=O)N1CCC2(CCN(Cc3ccc(C#N)c(F)c3)CC2)CC1` [Example 163, 2-fluoro-4-((9-(3,3,5-trimethyl-2,3-dihydro-1H-pyrrolo[3,2-b]pyridine-1-carbonyl)-3,9-diazaspiro[5.5]undecan-3-yl)methyl)benzonitrile], the Ki on human σ1 receptor (setting [1]) and at human σ2/TMEM97 receptor was 100 to 500 nM each time.
On to `CC1(C)CN(C(=O)N2CCC3(CCN(Cc4cc(F)ccc4F)CC3)CC2)c2cccnc21` [Example 164, (9-(2,5-difluorobenzyl)-3,9-diazaspiro[5.5]undecan-3-yl)(3,3-dimethyl-2,3-dihydro-1H-pyrrolo[3,2-b]pyridin-1-yl)methanone], for which the Ki on human σ1 receptor (setting [1]) and on human σ2/TMEM97 receptor was under 100 nM throughout.
As to `CC1(C)CN(C(=O)N2CCC3(CCN(Cc4ccc(C#N)cc4F)CC3)CC2)c2cccnc21` [Example 165, 4-((9-(3,3-dimethyl-2,3-dihydro-1H-pyrrolo[3,2-b]pyridine-1-carbonyl)-3,9-diazaspiro[5.5]undecan-3-yl)methyl)-3-fluorobenzonitrile], the Ki on human σ1 receptor (setting [1]) and on human σ2/TMEM97 receptor was under 100 nM throughout.
Turning to `CC1(C)CN(C(=O)N2CCC3(CCN(CC4CCOCC4)CC3)CC2)c2cccnc21` [Example 166, (3,3-dimethyl-2,3-dihydro-1H-pyrrolo[3,2-b]pyridin-1-yl)(9-((tetrahydro-2H-pyran-4-yl)methyl)-3,9-diazaspiro[5.5]undecan-3-yl)methanone], the Ki at human σ1 receptor (setting [1]) is 100 to 500 nM; at human σ2/TMEM97 receptor, under 100 nM.
For `CC1(C)CN(C(=O)N2CCC3(CCN(Cc4cc(C#N)c(F)cc4F)CC3)CC2)c2cccnc21` [Example 167, 5-((9-(3,3-dimethyl-2,3-dihydro-1H-pyrrolo[3,2-b]pyridine-1-carbonyl)-3,9-diazaspiro[5.5]undecan-3-yl)methyl)-2,4-difluorobenzonitrile] the same measures were under 100 nM and under 100 nM.
For `Cc1ccc2c(n1)C(C)(C)CN2C(=O)[C@H]1CC[C@H](N(C)Cc2cc(F)cc(F)c2)CC1` [Example 168, ((1r,4r)-4-((3,5-difluorobenzyl)(methyl)amino)cyclohexyl)(3,3,5-trimethyl-2,3-dihydro-1H-pyrrolo[3,2-b]pyridin-1-yl)methanone] the same measures were under 100 nM and under 100 nM.
Take `Cc1ccc2c(n1)C(C)(C)CN2C(=O)[C@H]1CC[C@H](N(C)Cc2cccc(F)c2)CC1` [Example 169, ((1r,4r)-4-((3-fluorobenzyl)(methyl)amino)cyclohexyl)(3,3,5-trimethyl-2,3-dihydro-1H-pyrrolo[3,2-b]pyridin-1-yl)methanone]: the Ki on human σ1 receptor (setting [1]) and at human σ2/TMEM97 receptor was under 100 nM in each case.

Usually Ki stands for a measure of affinity in units of concentration, obtained from inhibition or displacement.

The record behind these values is patent US20240174671A1, “New 2,3-Dihydro-1H-pyrrolo[3,2-b]pyridine Derivatives as Sigma Ligands” (ACONDICIONAMIENTO TARRASENSE, priority 2021, published 2024).
